Laboratory results reported in patent US7491707B1, “Synthetic lipid-a-analogs and uses thereof” (Biomira, Inc., priority 1999, dated 2009).
Entries after “also recorded” stand apart in the source; their conditions may differ.

Assays:
[1] = tested on: T-cell; assay: T-cell proliferation (3H thymidine incorporation) of lymph node lymphocytes from mice immunized with MUC1-based liposomal vaccine adjuvanted with Lipid-A analog; type: in vivo, C57-Black mice; conditions: for T-cell-Proliferation (CPM): s.c. liposomal vaccine 40 μg BP1-148 + 20 μg Lipid-A analog per dose, nine days after injection, boosting antigen BP1-151; for T-cell blastogenesis: in words, liposomal vaccine formulations in mice, FIG. 31-FIG. 33
Protocol: (§1) Typically, the liposomal formulation was composed of 400 μg of MUC1-based lipopeptide BP1-148, H2N-[…](Pal)G-OH, 200 μg of Lipid-A analog, 6.94 mg of cholesterol, 1.46 mg of dimyristoyl phosphatidylglycerol ([…]) and 11.62 mg of dipalmitoyl phosphatidylcholine (DPPC) per 1 ml of saline (0.9% NaCl solution).
(§2) The liposomal constructs were formulated by first dissolving the phospholipids, cholesterol and Lipid A analog in tert-butanol at about 53° C. Lipopeptide and water (5%, v/v) were then added to the tert-butanol solution. The resulting clear 95% tert-butanol solution was injected into about 4 volumes of rapidly stirred water at about 50° C., using a glass syringe with an 18-gauge needle. The small unilamellar vesicles (SUV) formed in this process were cooled, sterilized by filtration through a 0.22 μm membrane filter, filled into vials and lyophilized. The dry powder was re-hydrated with sterile saline before injection, resulting in the formation of multilamellar large vesicles (MLV). The liposomes formed are used to immunize mice.
(§3) Groups of C57-Black mice were immunized subcutaneously with the liposomal vaccine containing 40 μg of MUC1-based lipopeptide BP1-148 (FIG. 34), which has the peptide sequence of H2N-[…](Pal) G-OH, and 20 μg of Lipid-A analog per dose. Nine days after vaccine injection mice were sacrificed and lymphocytes were taken from the draining lymph nodes (local response) or from the spleens (systemic response) to determine the immune response in each group. The lymphocytes taken from immunized mice were incubated in in vitro cultures in the presence of MUC1-based boosting antigen BP1-151, which has the peptide sequence H2N-[…]-OH.
T-cell proliferation was evaluated using a standard ^3H thymidine incorporation assay. Briefly, nylon wool passed inguinal lymph node lymphocytes from each mouse were added to a culture containing 106 native mitomycin C treated syngeneic splenocytes, which serves as antigen presenting cells (APCs). To each well 20 μg of MUC1-based boosting peptide BP1-151, H2N-[…]-OH (single letter amino acid code, Table 8), was added for positive control; and cultures containing no antigen or peptide BP1-72, which has the peptide sequence H2N-[…]-OH, were used as negative control. The culture was incubated for 72 h in a total volume of 250 μl well, followed by adding 1 μCi of ^3H-thymidine in a volume of 50 μl. The plates were incubated for an additional 18-20 h. Cells were harvested and [^3H]dTh incorporation was measured by liquid scintillation counter. T-cell proliferation results corresponding to various liposomal vaccines adjuvanted, with different Lipid-A analogs are summarized in Tables 1-Table 3 and FIG. 31-FIG. 33.

[2] = tested on: Interferon-gamma (IFN-γ); assay: Interferon-gamma (IFN-γ) production in cell culture supernatants by ELISA, lymphocytes of mice immunized with adjuvanted MUC1 liposomal vaccine; type: in vivo, C57-Black mice; conditions: for Interferon-gamma (IFN-γ, pg/ml): s.c. liposomal vaccine 40 μg BP1-148 + 20 μg Lipid-A analog per dose, nine days after injection; for interferon-gamma production: in words, liposomal vaccine formulations in mice, FIG. 31-FIG. 33
Protocol: as §1, §2, §3
Interferon-gamma (IFN-γ) levels were determined in the cell culture supernatants using enzyme-linked immunoabsorbent assay (ELISA). 96-Well plates were coated with 50 μl of catcher Mabs in 50 μl of R4.6AZ at 37° C. for 30 min. The plates were then washed and incubated with test samples for 45 min. After two washes the second biotinylated antibody, XMG1.2 was added. After washing, peroxidase-conjugated streptavidin was added and incubated again for 30 min. Finally, 100 μl of horseradish peroxidase (HRPO) substrate solution was added. The optical density was measured with a Thermomax ELISA reader at 405 nm wavelength in kinetic mode for 10 min. The interferon-gamma (IFN-γ) levels corresponding to various Lipid-A analogs are shown in Table 1-Table 3 and FIG. 31-FIG. 33.

[3] = tested on: immune response to MUC1-based lipopeptide BP1-148; assay: Adjuvanticity of Lipid-A analogs in liposomal vaccine with MUC1 lipopeptide BP1-148 (T-cell blastogenesis and IFN-γ production); type: in vivo, mice; conditions: in words; liposomal formulations with BP1-148 in mice, FIGS. 31-33
Text: Liposome formulations have been used to evaluate the adjuvant properties of various synthetic Lipid-A structures and the immune responses to a synthetic lipopeptide antigen BP-148, H2N-[…](Pal)G-OH (FIG. 34), a modified 25-amino-acid sequence derived from tumor-associated MUC1 mucin. The commercially available Lipid-A product, which is currently under clinical evaluation as an adjuvant for vaccine programs, was used for comparison. The natural Lipid-A product, purchased from AVANTI, contained a mixture of Lipid-A analogs extracted from Salmonella bacterial cell wall and is designated as Natural Lipid-A in this invention.
Thus, the liposomal formulations containing the synthetic lipopeptide antigen, BP1-148, and Lipid-A analogs 33, 48, 54, 58, 70, 77, 86, 94, 102, 104 or Natural Lipid-A, were used to immunize mice to measure their immune response in terms of T-cell blastogenesis and interferon-gamma (IFN-γ) production. The compounds were tested in three groups at different time and their preliminary results are shown separately in FIGS. 31-33. As the variations are attributed to different factors such as animal groups and experimental factors, the data from different groups will not be compared.
as §3

Row | SMILES | T-cell-Proliferation (CPM) ([1]; Table 3, third test group) | T-cell blastogenesis [1] | Interferon-gamma (IFN-γ, pg/ml) ([2]; Table 3, third test group) | interferon-gamma production [2] | adjuvant activity compared to Natural Lipid-A (Lipid-A preparation of bacterial origin) [3] | T-cell-Proliferation (CPM) ([1]; Table 2, second test group) | Interferon-gamma (IFN-γ, pg/ml) ([2]; Table 2, second test group) | T-cell-Proliferation (CPM) ([1]; Table 1, first test group) | Interferon-gamma (IFN-γ, pg/ml) ([2]; Table 1, first test group)
1 | CCCCCCCCCCCCO[C@H](CCCCCCCCCCC)CC(=O)N[C@H]1[C@H](OC[C@H]2OC(O)[C@H](NC(=O)C[C@@H](CCCCCCCCCCC)OCCCCCCCCCCCC)[C@@H](OC(=O)C[C@H](O)CCCCCCCCCCC)[C@@H]2O)O[C@H](CO)[C@@H](OP(=O)(O)O)[C@@H]1OC(=O)C[C@@H](CCCCCCCCCCC)OCCCCCCCCCCCC (stereo partly drawn) [Compound 94, 2-Deoxy-6-O-{2-deoxy-4-O-phosphono-2-[(3R)-3-dodecyloxytetradecanamido]-3-O-[(3R)-3-dodecyloxytetradecanoyl]-β-D-glucopyranosyl}-3-O-[(3R)-3-hydroxytetradecanoyl]-2-[(3R)-3-dodecyloxytetradecanamido]-α/β-D-glucopyranose] | 10882 CPM | significant T-cell blastogenesis | 2150 pg/mL | low |  |  |  |  | 
2 | CCCCCCCCCCCCCC(=O)O[C@H](CCCCCCCCCCC)CC(=O)N[C@H]1[C@H](OC[C@H]2OC(O)[C@H](NC(=O)C[C@@H](CCCCCCCCCCC)OC(=O)CCCCCCCCCCCCC)[C@@H](OCCC)[C@@H]2O)O[C@H](CO)[C@@H](OP(=O)(O)O)[C@@H]1OC(=O)C[C@@H](CCCCCCCCCCC)OC(=O)CCCCCCCCCCCCC (stereo partly drawn) [Compound 70, 2-Deoxy-6-O-{2-deoxy-2-[(3R)-3-tetradecanoyloxytetradecanamido]-4-O-phosphono-3-O-[(3R)-3-tetradecanoyloxytetradecanoyl]-β-D-glucopyranosyl}-3-O-propyl-2-[(3R)-3-tetradecanoyloxytetradecanamido]-α/β-D-glucopyranose] |  | significant T-cell blastogenesis |  | high levels of interferon-gamma | as effective | 25034 CPM | 17321 pg/mL |  | 
3 | CCCCCCCCCCCCCCCC(=O)O[C@H](CCCCCCCCCCC)CC(=O)N[C@H]1C(O)O[C@H](CO[C@@H]2O[C@H](CO)[C@@H](OP(=O)(O)O)[C@H](OC(=O)C[C@@H](CCCCCCCCCCC)OC(=O)CCCCCCCCCCCCC)[C@H]2NC(=O)C[C@@H](CCCCCCCCCCC)OC(=O)CCCCCCCCCCC)[C@@H](O)[C@@H]1O (stereo partly drawn) [Compound 48, 2-Deoxy-6-O-{2-deoxy-2-[(3R)-3-dodecanoyloxytetradecanamido]-4-O-phosphono-3-O-[(3R)-3-tetradecanoyloxytetradecanoyl]-β-D-glucopyranosyl}-2-[(3R)-3-hexadecanoyloxytetradecanamido]-α/β-D-glucopyranose] |  | significant T-cell blastogenesis |  | high levels of interferon-gamma | as effective | 28149 CPM | 18261 pg/mL | 14112 CPM | 2430 pg/mL
4 | CCCCCCCCCCCCO[C@H](CCCCCCCCCCC)CC(=O)O[C@H](CCCCCCCCCCC)CC(=O)N[C@H]1C(O)O[C@H](CO[C@@H]2O[C@H](CO)[C@@H](OP(=O)(O)O)[C@H](OC(=O)C[C@@H](CCCCCCCCCCC)OCCCCCCCCCCCC)[C@H]2NC(=O)C[C@H](O)CCCCCCCCCCC)[C@@H](O)[C@@H]1O (stereo partly drawn) [Compound 104, 2-Deoxy-6-O-{2-deoxy-4-O-phosphono-2-[(3R)-3-hydroxytetradecanamido]-3-O-[(3R)-3-dodecyloxytetradecanoyl]-β-D-glucopyranosyl}-2-{(3R)-3-[(3R)-3-dodecyloxytetradecanoyloxy]-tetradecanamido}-α/β-D-glucopyranose] | 12635 CPM | significant T-cell blastogenesis | 14669 pg/mL | high levels of interferon-gamma | similar; also recorded: as effective |  |  |  | 
5 | CCCCCCCCCCCCO[C@H](CCCCCCCCCCC)CC(=O)N[C@H]1[C@H](OC[C@H]2OC(O)[C@H](NC(=O)C[C@@H](CCCCCCCCCCC)OC(=O)C[C@@H](CCCCCCCCCCC)OCCCCCCCCCCCC)[C@@H](O)[C@@H]2O)O[C@H](CO)[C@@H](OP(=O)(O)O)[C@@H]1OC(=O)C[C@@H](CCCCCCCCCCC)OCCCCCCCCCCCC (stereo partly drawn) [Compound 102, 2-Deoxy-6-O-{2-deoxy-4-O-phosphono-2-[(3R)-3-dodecyloxytetradecanamido]-3-O-[(3R)-3-dodecyloxytetradecanoyl]-β-D-glucopyranosyl}-2-{(3R)-3-[(3R)-3-dodecyloxytetradecanoyloxy]-tetradecanamido}-α/β-D-glucopyranose] | 13389 CPM | significant T-cell blastogenesis | 10587 pg/mL | high levels of interferon-gamma | similar; also recorded: as effective |  |  |  | 
6 | CCCCCCCCCCCCCC(=O)O[C@H](CCCCCCCCCCC)CC(=O)N[C@H]1[C@H](OC[C@H]2OC(O)[C@H](NC(=O)C[C@@H](CCCCCCCCCCC)OC(=O)CCCCCCCCCCCCC)[C@@H](O)[C@@H]2O)O[C@H](CO)[C@@H](OP(=O)(O)O)[C@@H]1OC(=O)C[C@@H](CCCCCCCCCCC)OC(=O)CCCCCCCCCCCCC (stereo partly drawn) [Compound 54, 2-Deoxy-6-O-{2-deoxy-4-O-phosphono-2-[(3R)-3-tetradecanoyloxytetradecanamido]-3-O-[(3R)-3-tetradecanoyloxytetradecanoyl]-β-D-glucopyranosyl}-2-[(3R)-3-tetradecanoyloxytetradecanamido]-α/β-D-glucopyranose] |  | significant T-cell blastogenesis |  | high levels of interferon-gamma | as effective | 32976 CPM | 36166 pg/mL |  | 
